Test results taken from patent publication US10370402B2, “Process for the preparation of fluticasone propionate form 1” (Pfizer Limited, priority 2011, dated 2019).

Key:
[1] = Particle size distribution of recrystallised fluticasone propionate by laser diffraction (Malvern Mastersizer 2000); format: physicochemical; settings: for D[v, 0.1]: 10th percentile volume diameter; for D[v, 0.1] / D[v, 0.5] / D[v, 0.9]: recrystallised batch, before micronisation; for D[v, 0.5]: 50th percentile (median) volume diameter; for D[v, 0.9]: 90th percentile volume diameter; for Ingoing particle size D[v, 0.5]: before micronisation (Table 3)
Method: The particle size distribution was measured on the Malvern Mastersizer 2000 laser diffraction system equipped with a Hydro 2000S liquid dispersion unit and flow cell. The sample was prepared by adding 15 drops of Tween 80 to crystallised fluticasone propionate within the glass 4 dram vial and mixing into a paste using a spatula, until all of the powder is wetted out and a smooth, uniform paste is achieved. Then the paste is added to the Hydro 2000S containing dispersant (0.1% Tween 80 in deionised water) using a spatula. When the obscuration target is achieved (20%±5%) the sample is left to stir within the Hydro 2000S for 1 minute to allow the particles to wet out, disperse and ensure a stable obscuration is achieved. Measurement is initiated after 1 minute of stirring.
The particle size data expressed as D[v, 0.1], D[v, 0.5] and D[v, 0.9] obtained from examples 2-9 are summarized below in Table 2. D[v, 0.1], D[v, 0.5] and D[v, 0.9] represent the 10th percentile volume diameter; 50th percentile volume diameter; and 90th percentile volume diameter respectively. In general the n^th percentile volume diameter is defined so that n % of the particles have a volume equivalent particle diameter smaller than or equal to the n^th percentile diameter. In the case of D[v, 0.5], it coincides with the median value.

[2] = Particle size distribution of micronised fluticasone propionate by laser diffraction (Sympatec HELOS); format: physicochemical; settings: after jet milling, JetPharma MC150, feed 15 g/min, mill pressure 3.5 bar, venturi 5.5 bar
Method: The particle size distribution was measured on the Sympatec HELOS laser diffraction system (with R1 optical module giving a measuring range of 0.1/0.18-35 μm) together with SUCELL dispersing module. 100 mg of micronised sample is weighed into a 4-dram vial and 15 drops (approximately 0.5 mL) of Tween 80 is added from a 3 ml wide-tipped pipette to the powder. The mixture is then carefully stirred into a paste until all the particles are wetted out and a uniform smooth mixture is achieved. Then the paste is added to the SUCELL containing dispersant (0.025% Tween 80 in deionised water) using a spatula. Once the optical concentration target is achieved (10-15%) then a measurement is taken.
Particles were micronized using a JetPharma MC150 (6 inch spiral jet mill) using the following conditions: • Feed rate: 15 g/min • Mill pressure: 3.5 bar • Venturi Pressure: 5.5 bar • Micronisation scale: 0.5 Kg.

D[v, 0.1] [1] [μm]	D[v, 0.5] [1] [μm]	D[v, 0.9] [1] [μm]	Ingoing particle size D[v, 0.5] [1] [μm]	Post-micronisation particle size D[v, 0.5] [2] [μm]	SMILES
6.2	22.5	53.4	22.5	4.0	CCC(=O)O[C@]1(C(=O)SCF)[C@H](C)C[C@H]2[C@@H]3C[C@H](F)C4=CC(=O)C=C[C@]4(C)[C@@]3(F)[C@@H](O)C[C@@]21C [Example 9, S-(fluoromethyl)-6α,9-difluoro-11β-17-dihydroxy-16α-methyl-3-oxoandrosta-1,4-diene-17β-carbothioate, 17-propionate]
1.3	2.8	5.6	2.8	2.3	CCC(=O)O[C@]1(C(=O)SCF)[C@H](C)C[C@H]2[C@@H]3C[C@H](F)C4=CC(=O)C=C[C@]4(C)[C@@]3(F)[C@@H](O)C[C@@]21C [Example 8, S-(fluoromethyl)-6α,9-difluoro-11β-17-dihydroxy-16α-methyl-3-oxoandrosta-1,4-diene-17β-carbothioate, 17-propionate]
15.4	55.1	135.9			CCC(=O)O[C@]1(C(=O)SCF)[C@H](C)C[C@H]2[C@@H]3C[C@H](F)C4=CC(=O)C=C[C@]4(C)[C@@]3(F)[C@@H](O)C[C@@]21C [Example 4, S-(fluoromethyl)-6α,9-difluoro-11β-17-dihydroxy-16α-methyl-3-oxoandrosta-1,4-diene-17β-carbothioate, 17-propionate]
2.1	5.1	11.357			CCC(=O)O[C@]1(C(=O)SCF)[C@H](C)C[C@H]2[C@@H]3C[C@H](F)C4=CC(=O)C=C[C@]4(C)[C@@]3(F)[C@@H](O)C[C@@]21C [Example 3, S-(fluoromethyl)-6α,9-difluoro-11β-17-dihydroxy-16α-methyl-3-oxoandrosta-1,4-diene-17β-carbothioate, 17-propionate]
3.4	11.4	32.1			CCC(=O)O[C@]1(C(=O)SCF)[C@H](C)C[C@H]2[C@@H]3C[C@H](F)C4=CC(=O)C=C[C@]4(C)[C@@]3(F)[C@@H](O)C[C@@]21C [Example 7, S-(fluoromethyl)-6α,9-difluoro-11β-17-dihydroxy-16α-25 methyl-3-oxoandrosta-1,4-diene-17β-carbothioate, 17-propionate]
2.1	5.9	15.2			CCC(=O)O[C@]1(C(=O)SCF)[C@H](C)C[C@H]2[C@@H]3C[C@H](F)C4=CC(=O)C=C[C@]4(C)[C@@]3(F)[C@@H](O)C[C@@]21C [Example 5, S-(fluoromethyl)-6α,9-difluoro-11β-17-dihydroxy-16α-methyl-3-oxoandrosta-1,4-diene-17β-carbothioate, 17-propionate]
2.5	6.7	15.7			CCC(=O)O[C@]1(C(=O)SCF)[C@H](C)C[C@H]2[C@@H]3C[C@H](F)C4=CC(=O)C=C[C@]4(C)[C@@]3(F)[C@@H](O)C[C@@]21C [Example 2, S-(fluoromethyl)-6α,9-difluoro-11β-17-dihydroxy-16α-methyl-3-oxoandrosta-1,4-diene-17β-carbothioate, 17-propionate]
2.0	5.3	12.4			CCC(=O)O[C@]1(C(=O)SCF)[C@H](C)C[C@H]2[C@@H]3C[C@H](F)C4=CC(=O)C=C[C@]4(C)[C@@]3(F)[C@@H](O)C[C@@]21C [Example 6, S-(fluoromethyl)-6α,9-difluoro-11β-17-dihydroxy-16α-methyl-3-oxoandrosta-1,4-diene-17β-carbothioate, 17-propionate]
